In the kinase profiling compilation of Christmann-Franck et al. (2016):

Legend:
Assay in all cases: Free Choice Kinase Assay Projects, Flashplate
PDGFRB (human) = PDGFRB (human) (UniProt P09619); details: compound 10.0 µM; ATP 0.3 µM
ERBB2 (human) = ERBB2 (human) (UniProt P04626); details: compound 10.0 µM; ATP 1 µM
PLK4 (human) = PLK4 (human) (UniProt O00444); details: compound 10.0 µM; ATP 0.3 µM
MAPK14 (human) = MAPK14 (human) (UniProt Q16539); details: compound 10.0 µM; ATP 1 µM
KDR (human) = KDR (human) (UniProt P35968); details: compound 10.0 µM; ATP 1 µM
Sequence of KDR (human) (P35968 whole entry, looked up): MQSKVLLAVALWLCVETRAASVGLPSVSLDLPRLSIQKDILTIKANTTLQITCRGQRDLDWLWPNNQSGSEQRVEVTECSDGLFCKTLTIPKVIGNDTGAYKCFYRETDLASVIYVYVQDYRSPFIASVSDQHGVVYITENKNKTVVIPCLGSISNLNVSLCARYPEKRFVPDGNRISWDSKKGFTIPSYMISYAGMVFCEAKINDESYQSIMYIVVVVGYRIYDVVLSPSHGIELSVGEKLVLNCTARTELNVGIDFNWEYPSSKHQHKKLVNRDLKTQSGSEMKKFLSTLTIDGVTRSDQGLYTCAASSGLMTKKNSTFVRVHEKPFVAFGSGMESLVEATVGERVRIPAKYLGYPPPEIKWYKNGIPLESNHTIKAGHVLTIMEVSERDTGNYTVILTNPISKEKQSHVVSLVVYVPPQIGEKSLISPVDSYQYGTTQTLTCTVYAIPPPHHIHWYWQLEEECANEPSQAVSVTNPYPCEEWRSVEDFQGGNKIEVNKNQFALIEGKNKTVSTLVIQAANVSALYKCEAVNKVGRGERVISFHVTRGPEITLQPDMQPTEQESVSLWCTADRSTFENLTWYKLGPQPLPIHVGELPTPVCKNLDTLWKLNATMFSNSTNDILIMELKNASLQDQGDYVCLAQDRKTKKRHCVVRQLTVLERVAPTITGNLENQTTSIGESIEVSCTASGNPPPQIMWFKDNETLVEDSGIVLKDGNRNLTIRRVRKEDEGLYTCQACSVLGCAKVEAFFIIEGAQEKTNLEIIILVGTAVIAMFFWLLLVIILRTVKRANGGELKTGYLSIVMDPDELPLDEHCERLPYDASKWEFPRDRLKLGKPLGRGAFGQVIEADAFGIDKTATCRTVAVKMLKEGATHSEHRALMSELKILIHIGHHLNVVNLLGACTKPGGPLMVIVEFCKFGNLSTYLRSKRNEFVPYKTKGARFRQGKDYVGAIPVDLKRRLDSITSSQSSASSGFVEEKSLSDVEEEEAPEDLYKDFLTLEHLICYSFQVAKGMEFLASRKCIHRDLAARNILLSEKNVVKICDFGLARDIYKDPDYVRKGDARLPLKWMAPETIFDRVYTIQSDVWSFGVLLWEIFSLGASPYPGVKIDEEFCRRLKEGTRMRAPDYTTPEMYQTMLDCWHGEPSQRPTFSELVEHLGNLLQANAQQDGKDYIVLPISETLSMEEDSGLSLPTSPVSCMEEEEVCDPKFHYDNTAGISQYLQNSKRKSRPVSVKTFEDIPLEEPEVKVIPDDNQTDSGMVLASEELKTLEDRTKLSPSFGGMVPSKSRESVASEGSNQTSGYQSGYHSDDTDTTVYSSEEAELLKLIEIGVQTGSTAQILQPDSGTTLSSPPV

CSNK2A1 (human) = CSNK2A1 (human) (UniProt P68400); details: compound 10.0 µM; ATP 0.1 µM
CDK4 CCND1 (human) = CDK4 CCND1 (human) (UniProt P11802+P24385); details: compound 10.0 µM; ATP 3 µM
EPHB4 (human) = EPHB4 (human) (UniProt P54760); details: compound 10.0 µM; ATP 1 µM
[1] = system: BRAF (human), P15056 [V600E]; details: compound 10.0 µM; ATP 3 µM
MET (human) = MET (human) (UniProt P08581); details: compound 10.0 µM; ATP 0.3 µM
SRC (human) = SRC (human) (UniProt P12931); details: compound 10.0 µM; ATP 0.3 µM
TEK (human) = TEK (human) (UniProt Q02763); details: compound 10.0 µM; ATP 1 µM
PLK1 (human) = PLK1 (human) (UniProt P53350); details: compound 10.0 µM; ATP 1 µM
AXL (human) = AXL (human) (UniProt P30530); details: compound 10.0 µM; ATP 0.3 µM
Sequence of AXL (human) (P30530 whole entry, looked up): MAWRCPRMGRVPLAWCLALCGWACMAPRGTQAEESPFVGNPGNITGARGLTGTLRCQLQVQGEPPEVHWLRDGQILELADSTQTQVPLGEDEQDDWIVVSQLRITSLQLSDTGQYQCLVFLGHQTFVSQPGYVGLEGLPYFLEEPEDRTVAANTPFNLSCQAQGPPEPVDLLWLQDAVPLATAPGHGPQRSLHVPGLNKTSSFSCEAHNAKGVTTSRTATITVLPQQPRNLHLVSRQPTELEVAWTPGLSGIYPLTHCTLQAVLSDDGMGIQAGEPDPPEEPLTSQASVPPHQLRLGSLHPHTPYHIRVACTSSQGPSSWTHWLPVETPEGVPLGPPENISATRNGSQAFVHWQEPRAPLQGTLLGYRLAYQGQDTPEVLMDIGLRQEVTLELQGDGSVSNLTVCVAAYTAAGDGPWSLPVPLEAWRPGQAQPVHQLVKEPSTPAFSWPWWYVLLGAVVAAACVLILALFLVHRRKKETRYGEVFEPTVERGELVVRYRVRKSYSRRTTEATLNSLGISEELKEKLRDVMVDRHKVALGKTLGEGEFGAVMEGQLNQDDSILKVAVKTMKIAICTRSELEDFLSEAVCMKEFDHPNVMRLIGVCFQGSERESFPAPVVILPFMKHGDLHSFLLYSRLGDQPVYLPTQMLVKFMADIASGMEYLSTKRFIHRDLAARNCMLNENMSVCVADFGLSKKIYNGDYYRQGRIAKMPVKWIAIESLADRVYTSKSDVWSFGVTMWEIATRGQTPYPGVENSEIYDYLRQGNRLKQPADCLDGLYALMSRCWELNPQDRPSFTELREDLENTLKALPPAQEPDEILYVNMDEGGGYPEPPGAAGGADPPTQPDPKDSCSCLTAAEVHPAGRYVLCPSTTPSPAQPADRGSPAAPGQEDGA

CDK2 CCNA2 (human) = CDK2 CCNA2 (human) (UniProt P24941+P20248); details: compound 10.0 µM; ATP 0.3 µM
Sequence of CDK2 CCNA2 (human) (P20248 whole entry, looked up, other chains not shown): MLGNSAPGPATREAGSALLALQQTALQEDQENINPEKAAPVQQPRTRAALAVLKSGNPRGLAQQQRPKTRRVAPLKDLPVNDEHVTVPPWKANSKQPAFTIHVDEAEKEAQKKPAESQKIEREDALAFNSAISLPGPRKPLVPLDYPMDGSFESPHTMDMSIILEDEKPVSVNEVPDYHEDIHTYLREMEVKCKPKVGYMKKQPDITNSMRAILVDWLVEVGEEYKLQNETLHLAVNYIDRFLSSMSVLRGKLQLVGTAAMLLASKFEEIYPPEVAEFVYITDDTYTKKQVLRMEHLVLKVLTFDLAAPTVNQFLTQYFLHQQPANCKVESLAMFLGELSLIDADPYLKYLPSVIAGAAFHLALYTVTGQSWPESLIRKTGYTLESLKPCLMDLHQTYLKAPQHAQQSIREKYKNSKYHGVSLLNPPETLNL

EGFR (human) = EGFR (human) (UniProt P00533); details: compound 10.0 µM; ATP 0.3 µM
MAP3K8 (human) = MAP3K8 (human) (UniProt P41279); details: compound 10.0 µM; ATP 3 µM
AURKA (human) = AURKA (human) (UniProt O14965); details: compound 10.0 µM; ATP 10 µM
PTK2 (human) = PTK2 (human) (UniProt Q05397); details: compound 10.0 µM; ATP 1 µM
IGF1R (human) = IGF1R (human) (UniProt P08069); details: compound 10.0 µM; ATP 1 µM
MAPK10 (human) = MAPK10 (human) (UniProt P53779); details: compound 10.0 µM; ATP 0.3 µM
AURKB (human) = AURKB (human) (UniProt Q96GD4); details: compound 10.0 µM; ATP 10 µM
Sequence of AURKB (human) (Q96GD4 whole entry, looked up): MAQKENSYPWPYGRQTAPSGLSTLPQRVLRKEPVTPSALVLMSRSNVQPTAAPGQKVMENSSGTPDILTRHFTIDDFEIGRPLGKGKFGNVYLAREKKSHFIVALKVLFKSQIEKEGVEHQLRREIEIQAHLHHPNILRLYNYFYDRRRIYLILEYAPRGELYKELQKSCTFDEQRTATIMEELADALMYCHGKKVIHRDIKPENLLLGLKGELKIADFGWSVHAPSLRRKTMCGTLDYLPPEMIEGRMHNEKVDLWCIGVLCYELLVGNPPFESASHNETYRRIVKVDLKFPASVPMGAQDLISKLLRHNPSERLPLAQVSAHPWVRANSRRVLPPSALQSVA

AKT1 (human) = AKT1 (human) (UniProt P31749); details: compound 10.0 µM; ATP 3 µM
NUAK1 (human) = NUAK1 (human) (UniProt O60285); details: compound 10.0 µM; ATP 1 µM
Sequence of NUAK1 (human) (O60285 whole entry, looked up): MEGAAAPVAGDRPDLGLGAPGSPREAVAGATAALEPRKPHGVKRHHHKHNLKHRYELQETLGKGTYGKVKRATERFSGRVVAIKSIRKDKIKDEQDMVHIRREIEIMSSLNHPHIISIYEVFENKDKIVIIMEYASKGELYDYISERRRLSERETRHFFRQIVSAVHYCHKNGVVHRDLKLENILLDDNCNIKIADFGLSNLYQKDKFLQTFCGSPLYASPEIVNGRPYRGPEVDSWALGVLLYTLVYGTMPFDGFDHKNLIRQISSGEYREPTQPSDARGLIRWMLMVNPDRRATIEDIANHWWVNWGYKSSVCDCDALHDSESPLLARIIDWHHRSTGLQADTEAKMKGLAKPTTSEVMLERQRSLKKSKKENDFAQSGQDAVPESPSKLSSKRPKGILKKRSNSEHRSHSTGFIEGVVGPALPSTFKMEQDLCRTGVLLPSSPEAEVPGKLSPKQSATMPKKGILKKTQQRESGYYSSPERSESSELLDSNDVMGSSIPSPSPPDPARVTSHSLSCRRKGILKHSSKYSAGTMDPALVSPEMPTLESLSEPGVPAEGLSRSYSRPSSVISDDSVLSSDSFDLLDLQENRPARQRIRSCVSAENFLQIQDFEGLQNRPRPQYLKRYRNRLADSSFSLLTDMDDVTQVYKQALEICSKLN

Sequence of PLK4 (human) (O00444 whole entry, looked up): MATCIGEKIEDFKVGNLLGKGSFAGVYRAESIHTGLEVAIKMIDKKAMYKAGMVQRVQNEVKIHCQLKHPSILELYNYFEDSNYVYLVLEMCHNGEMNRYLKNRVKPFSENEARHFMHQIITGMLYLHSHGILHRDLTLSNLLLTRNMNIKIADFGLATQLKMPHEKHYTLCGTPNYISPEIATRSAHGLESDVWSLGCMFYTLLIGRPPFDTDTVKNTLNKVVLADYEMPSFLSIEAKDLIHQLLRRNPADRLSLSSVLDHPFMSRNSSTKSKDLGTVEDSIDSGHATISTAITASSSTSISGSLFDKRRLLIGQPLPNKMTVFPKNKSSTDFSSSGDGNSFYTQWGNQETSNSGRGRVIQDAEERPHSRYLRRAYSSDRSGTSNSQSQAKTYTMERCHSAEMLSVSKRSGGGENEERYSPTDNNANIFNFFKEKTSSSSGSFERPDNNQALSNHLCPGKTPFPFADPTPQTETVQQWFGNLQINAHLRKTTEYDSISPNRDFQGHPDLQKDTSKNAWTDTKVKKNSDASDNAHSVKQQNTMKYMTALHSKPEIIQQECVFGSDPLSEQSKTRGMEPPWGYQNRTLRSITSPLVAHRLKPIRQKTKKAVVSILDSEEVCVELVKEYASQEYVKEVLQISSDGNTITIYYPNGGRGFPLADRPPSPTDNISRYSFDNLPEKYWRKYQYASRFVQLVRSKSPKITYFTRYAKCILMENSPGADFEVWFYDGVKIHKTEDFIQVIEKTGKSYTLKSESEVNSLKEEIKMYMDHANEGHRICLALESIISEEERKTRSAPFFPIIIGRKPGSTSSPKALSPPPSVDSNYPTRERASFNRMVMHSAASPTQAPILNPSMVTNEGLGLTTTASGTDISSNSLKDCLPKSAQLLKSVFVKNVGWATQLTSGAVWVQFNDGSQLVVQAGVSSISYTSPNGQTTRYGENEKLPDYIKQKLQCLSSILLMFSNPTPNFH
Sequence of MAPK14 (human) (Q16539 whole entry, looked up): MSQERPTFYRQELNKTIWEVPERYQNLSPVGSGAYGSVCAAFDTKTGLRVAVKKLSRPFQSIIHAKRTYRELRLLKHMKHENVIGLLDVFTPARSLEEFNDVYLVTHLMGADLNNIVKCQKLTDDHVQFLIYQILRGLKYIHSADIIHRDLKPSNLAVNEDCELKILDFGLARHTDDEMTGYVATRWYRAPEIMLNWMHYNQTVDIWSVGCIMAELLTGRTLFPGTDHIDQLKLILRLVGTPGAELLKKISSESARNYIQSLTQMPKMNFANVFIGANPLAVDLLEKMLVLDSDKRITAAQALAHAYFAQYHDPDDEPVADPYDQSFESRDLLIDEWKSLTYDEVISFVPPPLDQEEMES

residual activity (PDGFRB (human)): 65% | residual activity (ERBB2 (human)): 22% | residual activity (PLK4 (human)): 51% | residual activity (MAPK14 (human)): 4% | residual activity (KDR (human)): 26% | residual activity (CSNK2A1 (human)): 107% | residual activity (CDK4 CCND1 (human)): 103% | residual activity (EPHB4 (human)): 42% | residual activity [1]: 5% | residual activity (MET (human)): 78% | residual activity (SRC (human)): 34% | residual activity (TEK (human)): 33% | residual activity (PLK1 (human)): 120% | residual activity (AXL (human)): 91% | residual activity (CDK2 CCNA2 (human)): 117% | residual activity (EGFR (human)): 20% | residual activity (MAP3K8 (human)): 96% | residual activity (AURKA (human)): 64% | residual activity (PTK2 (human)): 99% | residual activity (IGF1R (human)): 104% | residual activity (MAPK10 (human)): 48% | residual activity (AURKB (human)): 78% | residual activity (AKT1 (human)): 130% | residual activity (NUAK1 (human)): 126%
SMILES: Oc1ccc(CSc2nc(-c3ccncc3)c(-c3ccc(F)cc3)[nH]2)cc1
